This is an account of results in patent US11259516B2, “Method and apparatus for capsular delivery to plants” (priority 2017, dated 2022).

Data set [1] has as its system Cryptostegia grandiflora (Rubber vine). Details: key: X indicates that the given herbicide is suitable for controlling the given weed. Conditions: cited from earlier work.
For the next data set, the system named is Mimosa pigra (Mimosa). The arrangement: key: X indicates that the given herbicide is suitable for controlling the given weed. The following applies: cited from earlier work.
Data set [2] relates to Vachellia nilotica (Prickly acacia). Details: key: X indicates that the given herbicide is suitable for controlling the given weed. The following applies: cited from earlier work.
Data set [3] has as its system western white gum (Eucalyptus argophloia). The experiment in a line: Example 2: glyphosate and hexazinone capsules, thinning trial in western white gum plantation. The protocol: The trial for this example was established at the HQP plantation near Jandowae on 6 Feb. 2018. The trees were planted in rows 4 m apart at 1.5 m spacing. Trees were 6-10 m tall. Trees to be maintained were marked and the other trees were treated.
Four treatments were used, with capsules as follows:
The capsules used were HPMC Size 0 Natural TR.V700 colour cap and body Vcaps (Suzhou Capsugel® Ltd, China). Capsules were hand packed using a Capsugel Profiller apparatus (https://www.capsugel.com/biopharmaceutical-products/profiller). An embodiment of apparatus 10 adapted to include handle 2201 (FIG. 17) was used to drill a hole into the stem, insert the herbicide capsule and seal with a wooden plug.
Herbicide capsules were applied to approximately 10 trees for each of the treatments. The number of capsules applied to each tree was independent of tree circumference which was measured at chest height. The tree circumferences range was from 20 to 34 centimetres. At 4 weeks, a small sample of trees were cut down with a chainsaw and cross-sections of stems containing the sites of insertion of the herbicide capsules removed. These stem pieces were returned to the laboratory and split open longitudinally through the insertion point. Tree health was assessed at 11 weeks (24 Apr. 2018) on a 0-4 scale with 0 being dead and 4 being healthy. Observations were made for evidence of flashback in untreated trees.

The next data set relates to Acacia spp (Wattles). The arrangement: key: X indicates that the given herbicide is suitable for controlling the given weed. Conditions: cited from earlier work.
Data set [4] deals with Ailanthus altissima (Tree-of-heaven). Details: key: X indicates that the given herbicide is suitable for controlling the given weed. The following applies: cited from earlier work.
Data set [5] deals with Eucalyptus spp (Box, Eucalypt). Details: key: X indicates that the given herbicide is suitable for controlling the given weed. Conditions: cited from earlier work.
Data set [6] has as its system Lycium ferocissium (African boxthom). The arrangement: key: X indicates that the given herbicide is suitable for controlling the given weed. Conditions: cited from earlier work.
The test system of data set [7] is Parkinsonia aculeata (Parkinsonia). Details: key: X indicates that the given herbicide is suitable for controlling the given weed. The following applies: cited from earlier work.
Data set [8] concerns Cascabela thevetia (Yellow oleander). The arrangement: key: X indicates that the given herbicide is suitable for controlling the given weed. Conditions: cited from earlier work.
The subject of data set [9] is Harungana madagarcariensis (Harungana). Details: key: X indicates that the given herbicide is suitable for controlling the given weed. The following applies: cited from earlier work.
Another data set has as its system Phoenix spp (Palms). The arrangement: key: X indicates that the given herbicide is suitable for controlling the given weed. Conditions: cited from earlier work.
Data set [10] deals with Schinus terebinthifolius (Broad-leafed pepper tree). Details: key: X indicates that the given herbicide is suitable for controlling the given weed. Conditions: cited from earlier work.
For data set [11], the system named is Tamarix aphylla (Athel pine). Details: key: X indicates that the given herbicide is suitable for controlling the given weed. Conditions: cited from earlier work.
A further data set deals with Angophora spp (Apple). The arrangement: key: X indicates that the given herbicide is suitable for controlling the given weed. The following applies: cited from earlier work.
Data set [12] deals with Bursaria spinosa (Australian blackthorn). Details: key: X indicates that the given herbicide is suitable for controlling the given weed. Conditions: cited from earlier work.
For data set [13], the system named is Caesalpinia decapetala (Thorny poinciana). The arrangement: key: X indicates that the given herbicide is suitable for controlling the given weed. The following applies: cited from earlier work.
For data set [14], the system named is Chamaecytisus palmensis (Tree lucerne). Details: key: X indicates that the given herbicide is suitable for controlling the given weed. The following applies: cited from earlier work.
Data set [15] relates to Jatropha gossypiifolia (Bellyache bush). Details: key: X indicates that the given herbicide is suitable for controlling the given weed. Conditions: cited from earlier work.
In the next data set the test system is Lantana camara (Lantana). Details: key: X indicates that the given herbicide is suitable for controlling the given weed. Conditions: cited from earlier work.
For data set [16], the system named is Ligustrum lucidum (Broad leaf privet). The arrangement: key: X indicates that the given herbicide is suitable for controlling the given weed. The following applies: cited from earlier work.
In data set [17] the test system is Ligustrum sinense (Chinese privet). Details: key: X indicates that the given herbicide is suitable for controlling the given weed. Conditions: cited from earlier work.
Data set [18] relates to Rubus anglocandicans (Blackberry). The arrangement: key: X indicates that the given herbicide is suitable for controlling the given weed. Conditions: cited from earlier work.
Data set [19] has as its system Senna pendula (Winter senna). Details: key: X indicates that the given herbicide is suitable for controlling the given weed. The following applies: cited from earlier work.
For data set [20], the system named is Azadirachta indica (Neem). Details: key: X indicates that the given herbicide is suitable for controlling the given weed. The following applies: cited from earlier work.
The subject of data set [21] is Leucaena leucocephala (Leucaena). The arrangement: key: X indicates that the given herbicide is suitable for controlling the given weed. The following applies: cited from earlier work.
Data set [22] has as its system Leptospermum spp. (Tea trees). Details: key: X indicates that the given herbicide is suitable for controlling the given weed. Conditions: cited from earlier work.
The test system of another data set is Salix species (Willows). Details: key: X indicates that the given herbicide is suitable for controlling the given weed. Conditions: cited from earlier work.
The subject of data set [23] is Senegalia catechu (Cutch tree). The arrangement: key: X indicates that the given herbicide is suitable for controlling the given weed. The following applies: cited from earlier work.
Data set [24] concerns Solanum mauritianum (Wild tobacco tree). Details: key: X indicates that the given herbicide is suitable for controlling the given weed. Conditions: cited from earlier work.
For data set [25], the system named is Ziziphus mauritania (Chinee apple). Details: key: X indicates that the given herbicide is suitable for controlling the given weed. The following applies: cited from earlier work.
Another data set has as its system Acer negudo (Box elder). The arrangement: key: X indicates that the given herbicide is suitable for controlling the given weed. Conditions: cited from earlier work.
For data set [26], the system named is Banksia spp (Bottlebrush). The arrangement: key: X indicates that the given herbicide is suitable for controlling the given weed. Conditions: cited from earlier work.
In data set [27] the test system is Cestrum parqui (Green cestrum). The arrangement: key: X indicates that the given herbicide is suitable for controlling the given weed. The following applies: cited from earlier work.
Data set [28] concerns Cinnamonum camphora (Camphor laurel). The arrangement: key: X indicates that the given herbicide is suitable for controlling the given weed. Conditions: cited from earlier work.
The test system of data set [29] is Crataegus sinaica (Azarola). Details: key: X indicates that the given herbicide is suitable for controlling the given weed. The following applies: cited from earlier work.
Data set [30] has as its system Olea europea sbsp africana (African olive). The arrangement: key: X indicates that the given herbicide is suitable for controlling the given weed. The following applies: cited from earlier work.
Data set [31] concerns Olea europea sbsp europa (European olive). Details: key: X indicates that the given herbicide is suitable for controlling the given weed. Conditions: cited from earlier work.
Another data set relates to Prosopis spp (Mesquite). Details: key: X indicates that the given herbicide is suitable for controlling the given weed. The following applies: cited from earlier work.
Data set [32] concerns Ricinus communis (Castor oil plant). Details: key: X indicates that the given herbicide is suitable for controlling the given weed. Conditions: in vivo; cited from earlier work.

With `COc1c(Cl)ccc(Cl)c1C(=O)O` [Dicamba], the “suitability of herbicide for control of weed” value (shortened to “suitability of herbicide”) (in data set [1]; in the data set on Mimosa pigra (Mimosa)) was “X” each time.
As for `CN(C)C(=O)Nc1ccc(Cl)c(Cl)c1` [Diuron], the “suitability of herbicide” value in data set [2] was “X”.
Consider `CN(C)c1nc(=O)n(C2CCCCC2)c(=O)n1C` [Hexazinone], for which the “trees died / killed (health rating 0-4 scale, 0 dead)” value in data set [3] (Eucalyptus argophloia, 11 weeks post treatment, 1 or 2 capsules per tree) is listed as “only a small percentage of trees killed”. Also, in [3] (Eucalyptus argophloia, 11 weeks, 1 or 2 capsules per tree), the “plant health (yellowing of the foliage)” value was “obvious deterioration in plant health”. For the same compound, in data set [3] (in vivo), the “flashback in the trees marked for retention” value is given as “no flashback was observed”. For the same compound, the “suitability of herbicide” value (in the data set with Acacia spp (Wattles); in data set [4]; in data set [1]; in data set [5]; in data set [6]; in [7]) was “X” in each case. In addition, the “suitability of herbicide” value in data set [2] is “X”.
With `CC(C)C1(C)N=C(c2ncccc2C(=O)O)NC1=O` (centres unmarked) [Imazapyr], the “suitability of herbicide” value (in [4]; in data set [8]; in data set [1]; in data set [9]; in the data set on Phoenix spp (Palms); in data set [10]) was “X” each time. In addition, the “suitability of herbicide” value in data set [11] is on record as “X”.
Consider `COC(=O)c1ccccc1S(=O)(=O)NC(=O)Nc1nc(C)nc(OC)n1` [Metsulfuron-methyl], for which the “suitability of herbicide” value (in the data set on Acacia spp (Wattles); in [4]; with Angophora spp (Apple); in [12]; in data set [13]; in data set [14]) was “X” in each case. Further, the “suitability of herbicide” value (in data set [1]; in [5]; in [9]; in data set [15]; with Lantana camara (Lantana); in data set [16]) was “X” each time. Further, the “suitability of herbicide” value (in data set [17]; in the data set with Mimosa pigra (Mimosa); in [18]; in data set [19]) was “X” in each case.
Regarding `Nc1c(Cl)c(Cl)nc(C(=O)O)c1Cl` [Picloram], the “suitability of herbicide” value (in the data set on Acacia spp (Wattles); in [20]; in data set [14]; in the data set on Lantana camara (Lantana); in [21]; in data set [22]) was “X” each time. Moreover, the “suitability of herbicide” value (in data set [16]; in [6]; in [18]; in the data set with Salix species (Willows); in [10]; in [23]) was “X” throughout. In addition, the “suitability of herbicide” value in data set [24] and in [25] was “X” each time.
Consider `O=C(O)COc1nc(Cl)c(Cl)cc1Cl` [Triclopyr], for which the “suitability of herbicide” value (with Acacia spp (Wattles); in the data set on Acer negudo (Box elder); in data set [4]; in the data set with Angophora spp (Apple); in data set [20]; in data set [26]) was “X” throughout. Moreover, the “suitability of herbicide” value in data set [12], in data set [27], in data set [28], in [29], in data set [1] and in data set [5] was “X” throughout. In addition, the “suitability of herbicide” value (in the data set on Lantana camara (Lantana); in data set [16]; in data set [17]; in [6]; in data set [30]; in data set [31]) was “X” in each case. Moreover, the “suitability of herbicide” value (with Phoenix spp (Palms); in the data set with Prosopis spp (Mesquite); in [32]; in [18]; in [10]; in [23]) was “X” each time. Also, the “suitability of herbicide” value in data set [11], in [2] and in data set [25] was “X” in each case.
